According to US10590440B2, “Process for producing a fermentation product from a lignocellulose-containing material” (CysBio ApS, priority 2014, dated 2020):

Experiments:
Assay type in all cases: cell-based, Escherichia coli
E. coli BL21(DE3)pLysS = experiment: Cell density of E. coli in media with ferulic acid, strain without SULT1A1 (Example 4); conditions: after 17 h at 37° C., inoculated at OD600 0.002
Protocol: (§1) The two strains BL21(DE3)pLysS and the strain carrying SULT1A1 were grown in M9 minimal media with 0.2% glucose, appropriate antibiotics for maintenance of the plasmids, and 0.1 mM IPTG for induction of expression of the sulfotransferase. We added ferulic acid to final concentration of either 2.5 mM or 5 mM (ferulic acid was dissolved in ethanol, which reached a final concentration of 2% in the media). Ferulic acid is a growth inhibitory compound found in lignocellulotic biomass hydrolysate. Cells were inoculated into the medium to an optical density at 600 nm (OD600) of 0.002 in a 1 cm light path. […] Presence of an aryl sulfotransferase removes the inhibition caused by ferulic acid.

[1] = tested on: E. coli BL21(DE3)pLysS carrying SULT1A1; experiment: Cell density of E. coli in media with ferulic acid, strain carrying SULT1A1 Homo sapiens (Example 4); conditions: after 17 h at 37° C., inoculated at OD600 0.002
Source text: SULT1A1 from Homo sapiens (SEQ ID NO: 2) mentioned in example 1 was cloned into the plasmid vector pET-28a(+) (Novagen, Life Technologies) as follows: The gene encoding the SULT1A1 was codon optimized for expression in E. coli by GeneArt (LifeTechnologies) and synthesized such that the start codon is an Ncol restriction site. The stop codon is immediately followed by a SalI site. The Ncol and SalI fragment of this DNA piece was cloned into the pET-28a(+) digested with Ncol and SalI using T4 DNA ligase. The resulting plasmid was transformed into E. coli BL21(DE3)pLysS (Life Technologies) selecting for resistance to […] kanamycin.
as §1

E. coli MG1655 = experiment: Toxicity of unsulfated or sulfated product: growth rate of E. coli MG1655 (Example 3, FIG. 5); conditions: M9 0.2% glucose, pH 7, 37° C.; pHCA 10-40 mM, zosteric acid 20 or 40 mM
Source text: All media preparations had been adjusted to pH 7. […] Filled squares represent growth rates in media with pHCA.

COc1cc(/C=C/C(=O)O)ccc1O [ferulic acid]
Optical density at 600 nm (E. coli BL21(DE3)pLysS; 2.5 mM ferulic acid): 0.680
Optical density at 600 nm (E. coli BL21(DE3)pLysS; 5 mM ferulic acid): 0.370
Optical density at 600 nm ([1]; 2.5 mM ferulic acid): 1.410
Optical density at 600 nm ([1]; 5 mM ferulic acid): 1.340

O=C(O)/C=C/c1ccc(O)cc1 [pHCA, p-coumaric acid]
Toxicity to the cells (growth rates in exponential growth phase) (E. coli MG1655): toxic to the cells

O=C(O)/C=C/c1ccc(OS(=O)(=O)O)cc1 [zosteric acid]
Toxicity to the cells (growth rates in exponential growth phase) (E. coli MG1655): much less so
